The values below come from ChEMBL document CHEMBL1201862, “PubChem BioAssay data set” (2004).

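Where inhibition never reached the appropriate level, the endpoint shown equals the highest concentration tested. Otherwise, values were interpolated linearly from a five-concentration, 48-hour dose response in 96-well plates. Abbreviation: GI50, concentration required for 50% inhibition of growth.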 Active and inactive are the calls of the source. Cut-off read from the data, not from the text of the source: active = GI50 up to about 1.1 µM and inactive = higher. Where only a bound is given, the exact number is not on record here.

Test in all cases: inhibition of tumour cell growth, NCI panel, 48 h
Assay [1] has as its system 786-0.
For assay [2], the system named is ACHN.
The test system of assay [3] is COLO 205.
Assay [4] relates to HCC 2998.
For assay [5], the system named is HT-29.
The subject of assay [6] is K562.
Assay [7] concerns M14.
Assay [8] deals with MCF7.
Assay [9] relates to NCI-H460.
Assay [10] relates to OVCAR-5.
For assay [11], the system named is RXF 393.
The subject of assay [12] is SK-MEL-28.
In assay [13] the test system is SNB-75.
The test system of assay [14] is SR.
For assay [15], the system named is T47D.
Assay [16] deals with U-251.
Assay [17] concerns UACC-62.
The test system of assay [18] is A498.
The subject of assay [19] is NCI/ADR-RES.

As for `CCOC(=O)c1c(NCc2ccccc2)n(-c2ccccc2)c(=S)n(-c2ccccc2)c1=O`, the GI50 in assay [1] is > 100 µM (inactive); in assay [2] it was > 100 µM (inactive); in [3] it was 76.2 µM (inactive); in [4] it was > 100 µM (inactive); in assay [5], 40.4 µM (inactive); in [6], 41.1 µM (inactive). Besides, the GI50 in [7] is > 100 µM (inactive); in assay [8], 53.3 µM (inactive); in assay [9], > 100 µM (inactive); in [10], > 100 µM (inactive); in assay [11], > 100 µM (inactive); in [12], > 100 µM (inactive). For the same compound, the GI50 in assay [13] was 33.7 µM (inactive); in [14] it was 33.7 µM (inactive); in assay [15], 66.4 µM (inactive); in assay [16] it was > 100 µM (inactive); in [17], 94.8 µM (inactive).

Turning to `O=Cc1coc2ccccc2c1=O`, the GI50 in assay [1] was 18.1 µM (inactive); in assay [18], 44.2 µM (inactive); in [2], 19.5 µM (inactive); in assay [3] it was 16.1 µM (inactive); in assay [5], 20.7 µM (inactive); in assay [6], 19.3 µM (inactive). Also, the GI50 in assay [7] is 17.9 µM (inactive); in assay [8] it was 19.2 µM (inactive); in [9], 20.9 µM (inactive); in assay [19], 16 µM (inactive); in assay [10], 23.1 µM (inactive); in [11], 18 µM (inactive). In addition, the GI50 is < 0.01 µM (active) in assay [13], 48.1 µM (inactive) in [15], 21.3 µM (inactive) in assay [16] and 19.9 µM (inactive) in assay [17].

For `CCCCNc1nc(N)nc(Nc2ccc(Br)cc2)c1N=O`, the GI50 in [1] is 17.5 µM (inactive); in assay [2], 60.3 µM (inactive); in assay [3] it was 47 µM (inactive); in assay [4], 87.7 µM (inactive); in assay [5], 86.5 µM (inactive); in assay [6], 38.9 µM (inactive). Besides, the GI50 is > 100 µM (inactive) in [7]; 74.6 µM (inactive) in assay [8]; 70 µM (inactive) in assay [9]; 39.4 µM (inactive) in assay [19]; 77.4 µM (inactive) in assay [10]; 32.7 µM (inactive) in assay [11]. For the same compound, the GI50 in assay [12] is > 100 µM (inactive); in assay [13], 52.2 µM (inactive); in assay [14], 6.43 µM (inactive); in [16] it was 31.1 µM (inactive); in assay [17], 62.7 µM (inactive).

As to `Cn1/c(=N\c2ccc(Cl)cc2)sc2ccccc21`, the GI50 is 37.7 µM (inactive) in assay [1]; 55.2 µM (inactive) in assay [18]; 49.8 µM (inactive) in assay [2]; 22.3 µM (inactive) in assay [3]; 23.7 µM (inactive) in [4]; 32.7 µM (inactive) in assay [5]. Moreover, the GI50 in [6] was 57.9 µM (inactive); in assay [9], 40.7 µM (inactive); in [19], 34.7 µM (inactive); in assay [10] it was 34.8 µM (inactive); in assay [11], 50.8 µM (inactive); in [12] it was > 100 µM (inactive). Moreover, the GI50 in assay [13] was 45.8 µM (inactive); in assay [14] it was > 100 µM (inactive); in assay [15], 15 µM (inactive); in [16] it was 52.5 µM (inactive); in [17], 40.6 µM (inactive).

`COc1ccc2c(c1)CC[C@@H]1[C@@H]2CC[C@]2(C)C(=O)/C(=C/c3ccc(OC)c(OC)c3)C[C@@H]12`: the GI50 in [1], in [18], in assay [2], in assay [4], in [7] and in assay [8] was > 100 µM (inactive) throughout. Also, the GI50 in assay [9] was > 100 µM (inactive); in assay [19] it was > 100 µM (inactive); in [10], > 100 µM (inactive); in [11], > 100 µM (inactive); in [13] it was > 100 µM (inactive); in assay [14], 5.07 µM (inactive). Also, the GI50 in assay [16] and in assay [17] was > 100 µM (inactive) each time.

Turning to `Cc1ccc2c(O)cc(-c3cc4ccccc4s3)nc2n1`, the GI50 was > 75.5 µM (inactive) in assay [1]; 47.6 µM (inactive) in assay [2]; > 100 µM (inactive) in assay [3]; > 100 µM (inactive) in assay [4]; > 84.7 µM (inactive) in assay [5]; > 100 µM (inactive) in [6]. In addition, the GI50 in assay [7] is > 100 µM (inactive); in [8] it was 17.7 µM (inactive); in assay [9] it was 50.9 µM (inactive); in [19], > 57.7 µM (inactive); in assay [10], > 100 µM (inactive); in assay [11], 33.7 µM (inactive). Further, the GI50 in assay [12] was > 100 µM (inactive); in assay [13] it was 17.5 µM (inactive); in assay [15] it was 2.13 µM (inactive); in assay [16], > 100 µM (inactive); in assay [17], > 68.7 µM (inactive).

Turning to `COC(=O)C1=C(O)CCCC(CCC(C)=O)=C1`, the GI50 in assay [1] was 26.9 µM (inactive); in [18] it was > 100 µM (inactive); in assay [2], 32.4 µM (inactive); in assay [3], 20.5 µM (inactive); in assay [4] it was > 100 µM (inactive); in [5], 57.4 µM (inactive). The GI50 was 31.3 µM (inactive) in assay [6]; 47 µM (inactive) in assay [7]; 30.7 µM (inactive) in assay [9]; > 100 µM (inactive) in [19]; > 100 µM (inactive) in assay [10]; 33.4 µM (inactive) in [11]. The GI50 in assay [12] is > 100 µM (inactive); in [13], 76.6 µM (inactive); in assay [14] it was 21.8 µM (inactive); in assay [15] it was 35.6 µM (inactive); in [16], 43.2 µM (inactive); in assay [17], 46 µM (inactive).

Turning to `CCn1c(O)c(C(=O)NC(C)c2ccc([N+](=O)[O-])cc2)c(=O)n(CC)c1=S` (configuration not stated), the GI50 in assay [1] was 3.27 µM (inactive); in [2], 3.1 µM (inactive); in [3] it was 1.81 µM (inactive); in [4] it was 3.29 µM (inactive); in assay [5], 2.34 µM (inactive); in assay [6], 0.951 µM (active). Moreover, the GI50 in assay [7] is 2.6 µM (inactive); in assay [8] it was 2.34 µM (inactive); in [9], 2.41 µM (inactive); in assay [10], 2.23 µM (inactive); in [11], 3.11 µM (inactive); in assay [12] it was 4.27 µM (inactive). Further, the GI50 was 2.16 µM (inactive) in [13], 3.33 µM (inactive) in [15], 1.84 µM (inactive) in assay [16] and 2.17 µM (inactive) in assay [17].

Regarding `O=C(C(=C(I)I)c1ccccc1)c1ccccc1`, the GI50 in assay [1] was > 10 µM (inactive); in [18], 13.1 µM (inactive); in [2], 29.7 µM (inactive); in assay [3], 27.5 µM (inactive); in assay [4] it was > 10 µM (inactive); in assay [5], 33.6 µM (inactive). Further, the GI50 is 4.7 µM (inactive) in assay [6]; 25 µM (inactive) in assay [7]; 49.8 µM (inactive) in assay [8]; 27.5 µM (inactive) in assay [9]; 28.6 µM (inactive) in [19]; 86.3 µM (inactive) in assay [10]. Besides, the GI50 in assay [12] is 30.7 µM (inactive); in assay [14], 14.2 µM (inactive); in assay [17], 18.2 µM (inactive).

As for `N#Cc1nc(C(O)c2ccccc2)oc1N` (configuration not stated), the GI50 in [1], in [18], in assay [2], in assay [3], in [5] and in assay [6] was > 100 µM (inactive) each time. The GI50 in [7] is > 100 µM (inactive); in assay [8] it was > 100 µM (inactive); in [19] it was > 100 µM (inactive); in assay [10] it was > 100 µM (inactive); in assay [11], 17.9 µM (inactive); in assay [12], > 100 µM (inactive). The GI50 in assay [13], in [15], in assay [16] and in assay [17] was > 100 µM (inactive) in each case.

In the case of `COc1cc(Nc2nc3ccccc3nc2C(=O)O)cc(OC)c1OC`, the GI50 in assay [1] was 75.3 µM (inactive); in [18], 35 µM (inactive); in assay [2], > 100 µM (inactive); in assay [3], > 100 µM (inactive); in assay [4] it was 69.3 µM (inactive); in [6], > 100 µM (inactive). The GI50 in assay [7] is 73.6 µM (inactive); in [9] it was 65.3 µM (inactive); in assay [19], 23 µM (inactive); in [10], > 100 µM (inactive); in [11], > 100 µM (inactive); in [12], 30.1 µM (inactive). Moreover, the GI50 was 47.2 µM (inactive) in assay [13], > 100 µM (inactive) in [14], 24.3 µM (inactive) in [15] and > 100 µM (inactive) in assay [16].

In the case of `C/C(=N/NC(=S)Nc1cccc(Cl)c1)c1ccccn1`, the GI50 in [1] is 0.562 µM (active); in assay [18], 1.5 µM (inactive); in [2], 0.194 µM (active); in assay [3] it was 0.0372 µM (active); in assay [4], 1.82 µM (inactive); in assay [5], 0.0488 µM (active). Besides, the GI50 in assay [6] is 0.0324 µM (active); in assay [7], 0.242 µM (active); in assay [8] it was 0.0151 µM (active); in assay [9], 0.357 µM (active); in assay [19], < 0.018 µM (active); in assay [10], 0.0474 µM (active). For the same compound, the GI50 is 1.52 µM (inactive) in [11]; 2.21 µM (inactive) in assay [12]; 2.95 µM (inactive) in assay [13]; < 0.0185 µM (active) in [14]; 0.0885 µM (active) in [16]; 0.202 µM (active) in [17].
